Here are results for 26 compounds from patent US11944627B2, “Methods for treating hematological malignancies and Ewing's sarcoma” (KURA ONCOLOGY, INC., priority 2017, dated 2024).

Structures are written as SMILES. pIC50: −log10 of the molar value.

In general, GI50 refers to the concentration at which growth is held to half of that of the control. Lower therefore signals greater sensitivity of the cells. What is called pIC50 is the IC50 on a negative log10 scale, so that one unit is a factor of ten.

For one test, the system named is MLL-AF9 BMC. In words: Cell proliferation assay, MLL-AF9 bone marrow cells. Type of test: cell-based, murine. Particulars: Mus musculus. The protocol: The ability of a compound of the present disclosure to inhibit the growth of selected cells was tested using a cell viability assay, such as the Promega CellTiter-Glo® Luminescent Cell Viability Assay (Promega Technical Bulletin, 2015, “CellTiter-Glo® Luminescent Cell Viability Assay”: 1-15, herein incorporated by reference in its entirety) or MTT cell proliferation assay (ATCC® 30-1010K) or cell counting. Compounds of the present disclosure can be tested in both acute myeloid leukemia cell lines or Ewing's sarcoma cell lines and control cell lines without the genetic abnormality or mutation being investigated (e.g., K562, REH, U937, KG-1, and/or HL-60). Selected cells can include, but are not limited to, cells such as human leukemia cell, acute myeloid leukemia cell, Ewing's sarcoma cell (e.g., SK-NEP-1, EW5, EW8, TC-71, TC-106, CHLA258, CHLA-9, CHLA-10, SK-ES-1, Hs 822.T, A-673, A-4573, Hs 863.T, RD-ES, CHLA-25, CHLA-32, CHLA-99, COG-E-352, TC-32, SK-N-MC), VCaP, LNCaP, 22RV1, DU145, LNCaP-AR, MV4;11, KOPN-8, ML-2, MOLM-13, RS4;11, SEM, bone marrow cells (BMCs), myeloblast cell, lymphoblast cell, NUP98 gene fusion cell (e.g., NUP98-PHF23 cell), NUP98-PHF23 (NP23) myeloblast cell (e.g., 961C), NUP98-PHF23 (NP23) lymphoblast cell (e.g., 748T, 106A), cell with an NPM1 mutation (e.g., OCI-AML3), cell without an NPM1 mutation, cell with a DNMT3A mutation (e.g., OCI-AML3, OCI-AML2, SET2), cell without a DNMT3A mutation, cell with a FLT3 mutation, cell without a FLT3 mutation, cell with an IDH1 mutation, cell without an IDH1 mutation, cell with an IDH2 mutation, cell without an IDH2 mutation, cell with a mixed lineage leukemia (MLL) gene amplification (e.g., UoC-M1, 2L1), cell without a mixed lineage leukemia (MLL) gene amplification, MLL-AF9, MLL-AF4, MLL-ENL, HM-2, E2A-HLF, REH, U937, HL-60, NB4, K562, KG-1, and OCI-AML2 cells. Cells were plated at relevant concentrations, for example about 1×10^5-2×10^5 cells per well in a 96-well plate. A compound of the present disclosure was added at a concentration up to about 2 μM with seven or eight, 2-fold serial dilutions for each compound. Cells were incubated at 37° C. for a period of time, for example, 72 hours, then cells in the control wells were counted. Media was changed to restore viable cell numbers to the original concentration, and compounds were re-supplied. Proliferation was measured about 72 hours later or about 96 hours later using Promega CellTiter-Glo® reagents or MTT reagents, as per kit instructions.
Consider `Cc1nc(NC2CCN(Cc3ccc4c(cc(C#N)n4C[C@H](C)N4CCC(S(C)(=O)=O)CC4)c3C)CC2)c2cc(CC(F)(F)F)sc2n1` [Compound I-165], for which the GI50 was less than 10 nM.
For the compound `CNS(=O)(=O)C1CCN([C@@H](C)Cn2c(C#N)cc3c(C)c(CN4CCC(Nc5nc(OC)nc6sc(CC(F)(F)F)cc56)CC4)ccc32)CC1` [Compound I-214], the GI50 was less than 10 nM.
With `CCNc1nc(NC2CCN(Cc3ccc4c(cc(C#N)n4C[C@H](C)N4CCN(S(C)(=O)=O)CC4)c3C)CC2)c2cc(CC(F)(F)F)sc2n1` [Compound I-174], the concentration for 50% growth inhibition (GI50) was 10 to 50 nM.
For `Cc1c(CN2CCC(Nc3ncnc4sc(CC(F)(F)F)cc34)CC2)ccc2c1cc(C#N)n2C[C@H](C)N1CCN(S(C)(=O)=O)CC1` [Compound I-10], the GI50 is 10 to 50 nM.
The same measure, in the same setting: for `CNC(=O)CN1CCN([C@@H](C)Cn2c(C#N)cc3c(C)c(CN4CCC(Nc5nc(N)nc6sc(CC(F)(F)F)cc56)CC4)ccc32)CC1` [Compound I-176] the value was 10 to 50 nM; for `Cc1c(CN2CCC(Nc3nc(N)nc4sc(CC(F)(F)F)cc34)CC2)ccc2c1cc(C#N)n2C[C@H](C)N1CCN(S(C)(=O)=O)CC1` [Compound I-135], less than 10 nM.
In turn, `CNS(=O)(=O)N1CCN([C@@H](C)Cn2c(C#N)cc3c(C)c(CN4CCC(Nc5nc(OC)nc6sc(CC(F)(F)F)cc56)CC4)ccc32)CC1` [Compound I-205] had a GI50 of less than 10 nM.
With `C[C@@H](Cn1c(C#N)cc2cc(CN3CCC(Nc4nc(N)nc5sc(CC(F)(F)F)cc45)CC3)c(O)cc21)N1CCN(S(C)(=O)=O)CC1` [Compound I-172], the GI50 was less than 10 nM.
`CNS(=O)(=O)N1CCN([C@@H](C)Cn2c(C#N)cc3c(C)c(CN4CCC(Nc5nc(C)nc6sc(CC(F)(F)F)cc56)CC4)ccc32)CC1` [Compound I-139] registered a GI50 of 10 to 50 nM.
In the case of `CNS(=O)(=O)N1CCN([C@@H](C)Cn2c(C#N)cc3c(C)c(CN4CCC(Nc5nc(N)nc6sc(CC(F)(F)F)cc56)CC4)ccc32)CC1` [Compound I-132], the GI50 was less than 10 nM.
The compound `CNc1nc(NC2CCN(Cc3ccc4c(cc(C#N)n4C[C@H](C)N4CCC(C)(C#N)CC4)c3C)CC2)c2cc(CC(F)(F)F)sc2n1` [Compound I-199] had a GI50 of less than 10 nM.
The compound `CCc1nc(NC2CCN(Cc3ccc4c(cc(C#N)n4C[C@H](C)N4CCN(S(C)(=O)=O)CC4)c3C)CC2)c2cc(CC(F)(F)F)sc2n1` [Compound I-171] yielded a GI50 of 10 to 50 nM.
On to `Cc1c(CN2CCC(Nc3nc(N)nc4sc(CC(F)(F)F)cc34)CC2)ccc2c1cc(C#N)n2C[C@H](C)N1CCN(CC(=O)N(C)C)CC1` [Compound I-181], for which the GI50 was in the range of 10 to 50 nM.
The same measure, in the same setting: for `CNc1nc(NC2CCN(Cc3ccc4c(cc(C#N)n4C[C@H](C)N4CCC(C)(O)CC4)c3C)CC2)c2cc(CC(F)(F)F)sc2n1` [Compound I-207] the value was less than 10 nM; for `Cc1c(CN2CCC(Nc3ncnc4sc(CC(F)(F)F)cc34)CC2)ccc2c1cc(C#N)n2C[C@@H](C)N1CCN(S(C)(=O)=O)CC1` [Compound I-9], 250 to 1000 nM; for `CNS(=O)(=O)N1CCN([C@@H](C)Cn2c(C#N)cc3cc(CN4CCC(Nc5nc(N)nc6sc(CC(F)(F)F)cc56)CC4)c(O)cc32)CC1` [Compound I-177], less than 10 nM.
As for `CNC(=O)C1CN([C@@H](C)Cn2c(C#N)cc3c(C)c(CN4CCC(Nc5nc(NC)nc6sc(CC(F)(F)F)cc56)CC4)ccc32)CCO1` (stereo partly shown) [Compound I-217], the GI50 lay within 10 to 50 nM.
As to `CNc1nc(NC2CCN(Cc3ccc4c(cc(C#N)n4C[C@H](C)N4CCN(S(C)(=O)=O)CC4)c3C)CC2)c2cc(CC(F)(F)F)sc2n1` [Compound I-151], the GI50 is less than 10 nM.
In turn, `Cc1nc(NC2CCN(Cc3ccc4c(cc(C#N)n4C[C@H](C)N4CCN(S(C)(=O)=O)CC4)c3C)CC2)c2cc(CC(F)(F)F)sc2n1` [Compound I-138] gave a GI50 of 10 to 50 nM.
`Cc1c(CN2CCC(Nc3ncnc4sc(CC(F)(F)F)cc34)CC2)ccc2c1cc(C#N)n2C[C@H](C)N1CCN(S(C)(=O)=O)[C@H](C(N)=O)C1` [Compound I-163] showed a GI50 of less than 10 nM.
Compound `COc1nc(NC2CCN(Cc3ccc4c(cc(C#N)n4C[C@H](C)N4CCN(S(C)(=O)=O)CC4)c3C)CC2)c2cc(CC(F)(F)F)sc2n1` [Compound I-183] gave a GI50 of less than 10 nM.
The same measure, in the same setting: in the case of `Cc1c(CN2CCC(Nc3ncnc4sc(CC(F)(F)F)cc34)CC2)ccc2c1cc(C#N)n2CC(C)N1CCN(S(C)(=O)=O)C(C(N)=O)C1` (stereo not shown) [Compound I-80] it was 10 to 50 nM.
The same measure, in the same setting: in the case of `Cc1c(CN2CCC(Nc3nc(N)nc4sc(CC(F)(F)F)cc34)CC2)ccc2c1cc(C#N)n2C[C@H](C)N1CCN(CC(N)=O)CC1` [Compound I-175] it was 10 to 50 nM.
On to `CNc1nc(NC2CCN(Cc3ccc4c(cc(C#N)n4C[C@H](C)N4CCS(=O)(=O)CC4)c3C)CC2)c2cc(CC(F)(F)F)sc2n1` [Compound I-203], for which the GI50 is less than 10 nM.

A further test concerns AM7577 cells. The test can be described thus: Serial bleed FACS analysis and survival study in AM7577 mouse model (Example 30). Particulars: Compound A ~100 or ~150 mg/kg, quizartinib ~3 mg/kg, combination ~100 + ~2 mg/kg, p.o. qd, FIG. 8. A general note: A flow cytometer gives signals particle by particle.
For `CC(C)(C)c1cc(NC(=O)Nc2ccc(-c3cn4c(n3)sc3cc(OCCN5CCOCC5)ccc34)cc2)no1` [quizartinib], the “leukemic progression (CD45+/CD38+ blasts, serial bleed FACS)” value is “evidence of leukemia breakout after 63 days”.

The test is the same for the next values; noted with them: compared to vehicle, FIG. 9A.
In the case of `CC(C)(C)c1cc(NC(=O)Nc2ccc(-c3cn4c(n3)sc3cc(OCCN5CCOCC5)ccc34)cc2)no1` [quizartinib], the overall survival entry was “prolonged survival”.

Staying with this test, now noted: quizartinib only treatment.
Take `CC(C)(C)c1cc(NC(=O)Nc2ccc(-c3cn4c(n3)sc3cc(OCCN5CCOCC5)ccc34)cc2)no1` [quizartinib]: the surviving animals entry was “no surviving animals after 84 days”.

The target in the next test is T1, menin-MLL interaction (Homo sapiens, UniProt O00255).
T1 sequence (O00255 1-610): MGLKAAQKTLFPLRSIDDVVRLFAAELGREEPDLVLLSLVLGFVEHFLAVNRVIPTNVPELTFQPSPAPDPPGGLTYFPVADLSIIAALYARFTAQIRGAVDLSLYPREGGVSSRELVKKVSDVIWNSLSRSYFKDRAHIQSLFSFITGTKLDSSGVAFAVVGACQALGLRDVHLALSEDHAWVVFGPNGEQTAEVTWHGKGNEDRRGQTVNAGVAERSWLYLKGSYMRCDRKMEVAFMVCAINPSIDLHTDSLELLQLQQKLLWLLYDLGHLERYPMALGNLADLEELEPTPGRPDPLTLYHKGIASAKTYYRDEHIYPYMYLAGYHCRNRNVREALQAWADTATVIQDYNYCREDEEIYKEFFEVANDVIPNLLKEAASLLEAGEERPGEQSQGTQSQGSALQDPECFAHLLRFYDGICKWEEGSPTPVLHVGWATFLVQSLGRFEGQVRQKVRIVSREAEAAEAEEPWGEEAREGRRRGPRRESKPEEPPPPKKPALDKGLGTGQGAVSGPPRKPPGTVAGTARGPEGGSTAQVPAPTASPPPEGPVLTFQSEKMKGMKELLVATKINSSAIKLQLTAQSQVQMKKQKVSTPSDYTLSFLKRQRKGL
The test can be described thus: Fluorescence polarization (FP) competition assay. In kind it is binding. Particulars: read-out: Menin MLL 4-43 IC50. In general terms: In fluorescence polarisation assays a small probe gives low polarisation when free and higher when bound to something large.
For `Cc1c(CN2CCC(Nc3ncnc4sc(CC(F)(F)F)cc34)CC2)ccc2c1cc(C#N)n2CCN1CCC2(CC1)CCN(S(C)(=O)=O)C2` [Compound I-52], the pIC50 was 6.00 to 6.60.

The next test relates to LXFE 2734 cells. In words: Serial bleed FACS analysis and survival study in LXFE 2734 mouse model. The note with it: LXFE 2734 model, compared to vehicle; FIG. 11.
From the text: Human leukemia cells were detected by FACS biweekly starting from week 2 post-cell inoculation.
`CC(C)(C)c1cc(NC(=O)Nc2ccc(-c3cn4c(n3)sc3cc(OCCN5CCOCC5)ccc34)cc2)no1` [quizartinib]: the overall survival result was “prolonged survival”.

The same test, now with this note: LXFE 2734 model, quizartinib ~3 mg/kg qd.
Consider `CC(C)(C)c1cc(NC(=O)Nc2ccc(-c3cn4c(n3)sc3cc(OCCN5CCOCC5)ccc34)cc2)no1` [quizartinib], for which the surviving animals entry is listed as “no quizartinib treated animals surviving after 77 days”.

The same test, now with this note: LXFE 2734 model; Compound A ~150 mg/kg p.o. qd, quizartinib ~3 mg/kg qd; FIG. 10.
In the case of `CC(C)(C)c1cc(NC(=O)Nc2ccc(-c3cn4c(n3)sc3cc(OCCN5CCOCC5)ccc34)cc2)no1` [quizartinib], the “leukemic progression (CD45+/CD33+ blasts, FACS)” value is “evidence of leukemia relapse”.
